Test results taken from US20060280690A1, “Methods of preparing a foam comprising a sclerosing agent” (priority 2003, published 2006).

Test: In vitro absorption of foam/gas in fresh human venous blood
Type: in vitro ADME
Details: 0.5 ml aliquot in 20 ml blood
Protocol: In vitro experiments were conducted to determine the absorption of foam made with different gases in fresh human venous blood.
A 20 ml polypropylene syringe barrel was prepared by puncturing its side wall with a relatively large hypodermic needle to make a hole approximately 1 mm in diameter. This hole was then covered by securing a piece of clear flexible vinyl sheet over it with clear adhesive tape. A small magnetic stirrer element was introduced into the syringe barrel and the plunger then replaced. 20 ml of human venous blood was then with withdrawn in the usual manner from a human subject using the specially prepared syringe fitted with a hypodermic needle.
The hypodermic needle was removed and the syringe then placed on a magnetic stirrer unit so that the magnetic element in the syringe thoroughly agitated the blood. The Luer nozzle of the syringe was then connected to a 50 cm piece of manometer tubing which was arranged horizontally and left open at one end. The manometer tubing was secured against a scale.
A 0.5 ml measuring syringe with a fine pre-fitted needle was then filled with foam made from 1% polidocanol solution and air. The density of the foam was 0.13 g/ml (±0.03 g/ml), the liquid component making up approximately 13% of the total volume of foam (±3%).
The needle of the 0.5 ml syringe was then introduced through the vinyl sheet on the side wall of the 20 ml syringe. […] The 0.5 ml aliquot of foam was then injected quickly and simultaneously a timer started (t0). As the foam displaced blood in the 20 ml syringe, the column of blood from the 20 ml syringe was displaced into the manometer tubing and the distance along the tubing reached by the distal end of the blood column was noted against the scale. The scale itself comprised spaced marker lines equally spaced at about 1 cm intervals. It was determined that a distance of 45 intervals on this scale corresponded to an internal volume of in the manometer tubing of approximately 0.5 ml.
As the gas in the foam started to be absorbed by the blood, the blood in the manometer tubing started to recede back towards the syringe. After the column appeared to have stopped moving, the timer was stopped (tF). The position of the distal end was again noted.
In this experiment, the air foam test was only observed for a few minutes after tF. However, further experiments have been conducted by the inventors, the results of which are not formally recorded here, involving foam with a percentage of nitrogen. A 20 ml syringe of fresh human venous blood, as in the above experiments, was injected with a 0.5 ml aliquot of a foam containing a percentage of nitrogen. The contents of the syringe were agitated as above and a period of 24 hours allowed to elapse.

- Absorbed volume at tF: 0.46 mL
- Unabsorbed gas %: 8%
- Unabsorbed gas ml: 0.04 mL
- tF (time until blood column stopped moving): 140 s
SMILES: O=O [Oxygen, oxygen]
